Measured values published in paper PMC4917657, “SP6616 as a new Kv2.1 channel inhibitor efficiently promotes β-cell survival involving both PKC/Erk1/2 and CaM/PI3K/Akt signaling pathways” (Cell Death & Disease, 2016).

System: T1, Kv2.2
T1 construct: gene KCNB2
Experiment: channel inhibition in CHO cells transfected with pcDNA3.1a-Kv2.[…] (Supplementary Figure […])
Format: cell-based

CCOC(=O)C1=C(C)N=c2sc(=Cc3ccc(O)c(OC)c3)c(=O)n2C1c1ccc(OC)c(OCC)c1 (stereo not shown) [SP6616, ethyl 5-(3-ethoxy-4-methoxyphenyl)-2-(4-hydroxy-3-methoxybenzylidene)-7-methyl-3-oxo-2,3-dihydro-5H-[1,3]thiazolo[3,2–a]pyrimidine-6-carboxylate]
IC50: 13.5 µM
